In ChEMBL document CHEMBL5230110, “FabI (enoyl acyl carrier protein reductase) - A potential broad spectrum therapeutic target and its inhibitors” (Eur J Med Chem, 2020):
Converted amounts (≈) assume the structure as drawn.

Assays:
Plasmodium falciparum = experiment: Antimalarial activity against Plasmodium falciparum by LDH assay; type: functional, organism-based
[1] = Inhibition of Plasmodium falciparum NF54 HDAC using extract measured after 60 mins by fluorescence assay; conditions: read-out: IC50
Escherichia coli [2] = experiment: Antibacterial activity against Escherichia coli assessed as bacterial growth inhibition at 50 uM measured after 24 hrs by 96-wellplate reader assay method; type: functional
[3] = test system: Mycobacterium tuberculosis; experiment: Antimycobacterial activity against Mycobacterium tuberculosis H37Rv after 14 days; type: functional; conditions: 336 h, time 14 day
Staphylococcus aureus [4] = experiment: Antibacterial activity against Staphylococcus aureus assessed as inhibition of bacterial growth measured after 24 hrs; type: functional
Escherichia coli [5] = experiment: Antibacterial activity against Escherichia coli assessed as bacterial growth inhibition; type: functional
[6] = test system: Mycobacterium tuberculosis; experiment: Antimycobacterial activity against Mycobacterium tuberculosis H37Rv assessed as reduction in bacterial growth incubated for 7 days by dye based assay; type: functional; conditions: 168 h, time 7 day
Staphylococcus aureus [7] = experiment: Antibacterial activity against Staphylococcus aureus assessed as bacterial growth inhibition; type: functional
Pseudomonas aeruginosa = experiment: Antibacterial activity against Pseudomonas aeruginosa assessed as bacterial growth inhibition; type: functional
[8] = Cytotoxicity against African green monkey Vero cells assessed as reduction in cell viability by coulter counter method; type: toxicity, cell-based; conditions: chlorocebus sabaeus
[9] = Cytotoxicity against human HepG2 cells assessed as reduction in cell viability […] incubated for 48 hrs by MTT assay; type: toxicity, cell-based
[10] = Selectivity index, ratio of CC50 for african green monkey Vero cells to CC50 for human HepG2 cells; type: toxicity; conditions: Vero cells and HepG2 cells, read-out: Selectivity Index
HeLa = experiment: Cytotoxicity against human HeLa cells assessed as inhibition of cell growth incubated for 48 hrs by CCK8 assay; type: functional, cell-based
Bacillus anthracis = experiment: Antibacterial activity against Bacillus anthracis assessed as reduction in bacterial growth measured after 24 hrs by broth microdilution method; type: functional
Staphylococcus aureus [11] = experiment: Bactericidal activity against methicillin-resistant Staphylococcus aureus measured after 24 hrs by sub-culturing; type: functional
Staphylococcus aureus [12] = experiment: Bactericidal activity against methicillin-sensitive Staphylococcus aureus measured after 24 hrs by sub-culturing; type: functional
[13] = Cytotoxicity against mouse MH-S cells; type: functional, cell-based
Staphylococcus aureus [14] = experiment: Antibacterial activity against methicillin resistant Staphylococcus aureus assessed as reduction in bacterial growth incubated for 12 hrs by microdilution method; type: functional
[15] = Inhibition of Bacillus anthracis enoyl ACP reductase assessed as inhibition of bacterial growth
[16] = test system: Staphylococcus epidermidis; experiment: Antibacterial activity against methicillin-sensitive Staphylococcus epidermidis assessed as reduction in bacterial growth incubated for 12 hrs by microdilution method; type: functional
Escherichia coli [17] = experiment: Antibacterial activity against Escherichia coli BAA 2340 assessed as reduction in microbial growth inhibition; type: functional
Staphylococcus aureus [18] = experiment: Antibacterial activity against Staphylococcus aureus ATCC 29213 assessed as bacterial growth inhibition incubated for 24 hrs by broth dilution method; type: functional
[19] = target: T1, Enoyl-[acyl-carrier-protein] reductase [NADPH] FabI (Staphylococcus aureus, UniProt Q6GI75); experiment: Inhibition of Staphylococcus aureus ATCC 29213 FabI in the presence of NADH using crotonyl CoA as substrate by measuring NADH consumption rate
T1 sequence (Q6GI75 whole entry): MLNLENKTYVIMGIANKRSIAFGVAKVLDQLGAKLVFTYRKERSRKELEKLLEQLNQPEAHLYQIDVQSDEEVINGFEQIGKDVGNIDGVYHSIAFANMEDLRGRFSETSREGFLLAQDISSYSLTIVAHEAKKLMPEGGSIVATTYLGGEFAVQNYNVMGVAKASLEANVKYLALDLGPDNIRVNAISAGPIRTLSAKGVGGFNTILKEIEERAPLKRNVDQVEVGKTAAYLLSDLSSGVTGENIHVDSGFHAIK

Acinetobacter baumannii = experiment: Antibacterial activity against Acinetobacter baumannii W41979; type: functional
[20] = test system: Staphylococcus epidermidis; experiment: Antibacterial activity against methicillin-resistant Staphylococcus epidermidis assessed as reduction in bacterial growth incubated for 12 hrs by microdilution method; type: functional
Staphylococcus aureus [21] = experiment: Antibacterial activity against methicillin-sensitive Staphylococcus aureus assessed as reduction in bacterial growth incubated for 12 hrs by microdilution method; type: functional
[22] = target: T1, Enoyl-[acyl-carrier-protein] reductase [NADPH] FabI; experiment: Inhibition of Staphylococcus aureus FabI assessed as inhibition of bacterial growth by measuring the NADH consumption rate at 20 mins
Klebsiella pneumoniae = experiment: Antibacterial activity against Klebsiella pneumoniae BAA-1705; type: functional
[23] = target: T2, Enoyl-[acyl-carrier-protein] reductase [NADH] FabI (Escherichia coli K-12, UniProt P0AEK4); experiment: Inhibition of Escherichia coli DH5alpha FabI in the presence of NADH using crotonyl CoA as substrate by measuring NADH consumption rate
T2 sequence (P0AEK4 whole entry): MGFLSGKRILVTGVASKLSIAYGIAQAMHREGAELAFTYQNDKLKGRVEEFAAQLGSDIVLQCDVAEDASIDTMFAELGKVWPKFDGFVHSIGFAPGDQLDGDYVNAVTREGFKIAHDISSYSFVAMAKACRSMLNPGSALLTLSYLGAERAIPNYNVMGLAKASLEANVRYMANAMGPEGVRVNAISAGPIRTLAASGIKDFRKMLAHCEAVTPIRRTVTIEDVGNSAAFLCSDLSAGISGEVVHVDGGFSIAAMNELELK

[24] = target: T2, Enoyl-[acyl-carrier-protein] reductase [NADH] FabI; experiment: Inhibition of Escherichia coli FabI in the presence of NADH using crotonyl CoA as substrate by measuring NADH consumption rate
Staphylococcus aureus [25] = experiment: Antibacterial activity in Swiss albino mouse model infected with Methicillin-resistant Staphylococcus aureus NRS 382 assessed as reduction in bacterial growth; type: functional
Staphylococcus aureus [26] = experiment: Antibacterial activity against methicillin-susceptible Staphylococcus aureus assessed as reduction in bacterial growth; type: functional
Staphylococcus aureus [27] = experiment: Antibacterial activity in Swiss albino mouse model infected with Methicillin- sensitive Staphylococcus aureus ATCC 29213 assessed as reduction in bacterial growth; type: functional
Staphylococcus aureus [28] = experiment: In vivo antibacterial activity against methicillin-resistant Staphylococcus aureus infected in murine assessed as reduction in bacterial burden; type: functional
[29] = test system: Staphylococcus epidermidis; experiment: Antibacterial activity against Methicillin-resistant Staphylococcus epidermidis ATCC 35984 assessed as reduction in bacterial growth; type: functional
[30] = target: T3, Enoyl-[acyl-carrier-protein] reductase [NADH] (Mycobacterium tuberculosis, UniProt P9WGR1); experiment: Inhibition of Mycobacterial tuberculosis ATCC 25618 FabI assessed as measuring NADH consumption rate
T3 sequence (P9WGR1 whole entry): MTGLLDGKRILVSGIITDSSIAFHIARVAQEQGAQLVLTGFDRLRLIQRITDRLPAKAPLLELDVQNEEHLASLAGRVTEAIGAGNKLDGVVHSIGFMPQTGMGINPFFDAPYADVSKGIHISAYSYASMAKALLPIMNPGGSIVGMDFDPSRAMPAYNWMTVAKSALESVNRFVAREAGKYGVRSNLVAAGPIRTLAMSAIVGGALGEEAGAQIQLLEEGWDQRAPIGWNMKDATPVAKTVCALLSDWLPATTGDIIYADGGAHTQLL

[31] = Cytotoxicity against African green monkey Vero cells assessed as reduction in cell viability measured after 72 hrs by coulter counter method; type: toxicity, cell-based; conditions: chlorocebus sabaeus
Staphylococcus aureus [32] = experiment: Antibacterial activity against Staphylococcus aureus ATCC 43300 assessed as reduction in microbial growth inhibition in presence of ceftazidime; type: functional
Staphylococcus aureus [33] = experiment: Antibacterial activity against Staphylococcus aureus ATCC 43300 assessed as reduction in microbial growth inhibition in presence of chloramphenicol; type: functional
Staphylococcus aureus [34] = experiment: Antibacterial activity against Staphylococcus aureus ATCC 43300 assessed as reduction in microbial growth inhibition in presence of carbenicillin; type: functional
Staphylococcus aureus [35] = experiment: Antibacterial activity against Methicillin-resistant Staphylococcus aureus 5749 assessed as reduction in microbial growth inhibition; type: functional
Staphylococcus aureus [36] = experiment: Antibacterial activity against Staphylococcus aureus ATCC 29213 assessed as reduction in microbial growth inhibition; type: functional
Staphylococcus aureus [37] = experiment: Antibacterial activity against Methicillin-resistant Staphylococcus aureus 5912 assessed as reduction in microbial growth inhibition; type: functional
Staphylococcus aureus [38] = experiment: Antibacterial activity against Staphylococcus aureus ATCC 43300 assessed as reduction in microbial growth inhibition; type: functional
Escherichia coli [39] = experiment: Antibacterial activity against Escherichia coli ATCC 35218 assessed as reduction in microbial growth inhibition; type: functional
Staphylococcus aureus [40] = experiment: Antibacterial activity against […] Staphylococcus aureus ATCC 29213 assessed as reduction in microbial growth inhibition; type: functional
[41] = test system: Mycobacterium tuberculosis; experiment: Antimycobacterial activity against Mycobacterium tuberculosis ATCC 25618 extracellular forms assessed as inhibition of microbial growth; type: functional
[42] = target: T1, Enoyl-[acyl-carrier-protein] reductase [NADPH] FabI; experiment: Inhibition of Staphylococcus aureus FabI assessed as inhibition at 10 uM
[43] = target: T1, Enoyl-[acyl-carrier-protein] reductase [NADPH] FabI; experiment: Inhibition of Staphylococcus aureus FabI in the presence of NADH using crotonyl CoA as substrate by measuring NADH consumption rate
[44] = target: T4, Enoyl-[acyl-carrier-protein] reductase [NADH] FabI (Haemophilus influenzae (strain ATCC 51907 / DSM 11121 / KW20 / Rd), UniProt P44432); experiment: Inhibition of Haemophilus influenzae ATCC 51907 FabI assessed as by measuring NADH consumption rate
T4 sequence (P44432 whole entry): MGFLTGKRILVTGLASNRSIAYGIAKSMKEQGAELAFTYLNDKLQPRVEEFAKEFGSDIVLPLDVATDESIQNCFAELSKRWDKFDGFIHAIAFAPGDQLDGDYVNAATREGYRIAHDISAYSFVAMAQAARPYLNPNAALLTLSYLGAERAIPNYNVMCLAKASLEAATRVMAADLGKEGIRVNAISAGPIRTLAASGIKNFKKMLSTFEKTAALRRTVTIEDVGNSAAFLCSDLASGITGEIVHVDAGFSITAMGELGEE

Oc1cc(Cl)ccc1Oc1ccc(Cl)cc1Cl [TRICLOSAN]
EC50 (Plasmodium falciparum): 0.8 µg/mL (≈ 2.76 µM)
IC50 [1]: 73 nM
MIC (Escherichia coli [2]): 0.3 µg/mL (≈ 1.04 µM)
MIC [3]: 12.5 µg/mL (≈ 43.2 µM)
MIC (Staphylococcus aureus [4]): 0.016 µg/mL (≈ 0.0553 µM)

Cc1ccc(C2=NCC(c3ccc(Oc4ccccc4)c(O)c3)C2)cc1 (configuration not stated)
MIC (Escherichia coli [5]): 18.2 µM (≈ 6.26 µg/mL)
MIC [6]: 18 µM (≈ 6.18 µg/mL)
MIC (Staphylococcus aureus [7]): 9 µM (≈ 3.09 µg/mL)
MIC (Pseudomonas aeruginosa): 18 µM (≈ 6.18 µg/mL)
CC50 [8]: > 646000 nM
CC50 at 48 h [9]: > 596000 nM
selectivity ratio [10]: > 10

CCCc1ccc(Oc2ccc([N+](=O)[O-])cc2Cl)c(O)c1
EC50 (HeLa): 41.1 µg/mL (≈ 134 µM)
MIC (Bacillus anthracis): 1.9 µg/mL (≈ 6.17 µM)
MBC (Staphylococcus aureus [11]): 1.2 µg/mL (≈ 3.9 µM)
MBC (Staphylococcus aureus [12]): 2.9 µg/mL (≈ 9.42 µM)
EC50 [13]: 22.6 µg/mL (≈ 73.4 µM)
MIC (Staphylococcus aureus [14]): 0.3 µg/mL (≈ 0.975 µM)
IC50 [15]: 500 nM

Cc1c(CN(C)C(=O)/C=C/c2cnc3c(c2)CCC(=O)N3)oc2ccccc12 [AFN-1252]
MIC90 [16]: 0.03 µg/mL (≈ 0.0799 µM)
MIC (Escherichia coli [17]): > 32 µg/mL
MIC (Staphylococcus aureus [18]): 0.008 µg/mL (≈ 0.0213 µM)
IC50 [19]: 9600 nM
MIC (Acinetobacter baumannii): > 32 µg/mL
MIC90 [20]: ≤ 0.008 µg/mL
MIC90 (Staphylococcus aureus [21]): ≤ 0.008 µg/mL
IC50 [22]: 14 nM
MIC (Klebsiella pneumoniae): > 32 µg/mL

CCc1cc(O)c(Oc2ccc(C(N)=O)cc2F)cc1F
IC50 [23]: 58 nM
IC50 [24]: 58 nM
ED50 (Staphylococcus aureus [25]): 19.3 mg/kg/day
MIC90 (Staphylococcus aureus [26]): 0.03 µg/mL (≈ 0.102 µM)
ED50 (Staphylococcus aureus [27]): 40 mg/kg/day
MIC90 (Staphylococcus aureus [14]): 0.12 µg/mL (≈ 0.409 µM)

Cc1c(C2CN(C(=O)/C=C/c3cnc4c(c3)CCC(=O)N4)C2)oc2ccccc12
ED50 (Staphylococcus aureus [28]): 0.9 mg/kg
MIC [29]: 0.5 µg/mL (≈ 1.29 µM)

C=C1C(=O)OC[C@H]1C/C=C(\C)CC(=O)C=C(C)C
IC50 [30]: 18100 nM

C[C@@H](Oc1cc(-c2cnn(C3CCNCC3)c2)cnc1N)c1c(Cl)ccc(F)c1Cl [CRIZOTINIB]
CC50 at 72 h [31]: 4230 nM
MIC (Staphylococcus aureus [32]): 4 µg/mL
MIC (Staphylococcus aureus [33]): 2 µg/mL
MIC (Staphylococcus aureus [34]): 2 µg/mL
MIC (Staphylococcus aureus [35]): 125 µM
MIC (Staphylococcus aureus [36]): 125 µM
MIC (Staphylococcus aureus [37]): 15.6 µM
MIC (Staphylococcus aureus [38]): 7.03 µg/mL
MIC (Escherichia coli [39]): 250 µM
MIC (Staphylococcus aureus [40]): 31.2 µM

CC1(C)CCC(Cc2cc(O)c(-c3ccccc3)c(=O)[nH]2)CC1
MIC [41]: 0.05 µM

CC(C)=CCc1c(O)ccc(C(=O)[C@H]2[C@@H](c3c(O)cc(-c4cc5ccc(O)cc5o4)cc3O)C=C(C)C[C@@H]2c2ccc(O)cc2O)c1O [CHALCOMORACIN]
MIC (Staphylococcus aureus [4]): 4 µg/mL (≈ 6.17 µM)
IC50 [42]: 5500 nM

Cc1c(CN(C)C(=O)/C=C/c2cnc3c(c2)CCC(=O)N3)c2ccccc2n1C
IC50 [43]: 130 nM
IC50 [44]: 390 nM
